# Measured values taken from BigSolDB 2.1.
# [1] = in tetrachloromethane, 283.15 K
# [2] = in tetrachloromethane, 288.15 K
# [3] = in tetrachloromethane, 293.15 K
# [4] = in tetrachloromethane, 298.15 K
# [5] = in tetrachloromethane, 303.15 K
# [6] = in tetrachloromethane, 308.15 K
# [7] = in tetrachloromethane, 313.15 K
# [8] = in tetrachloromethane, 318.15 K
# [9] = in tetrachloromethane, 323.15 K
# [10] = in tetrachloromethane, 328.15 K
smiles,measurement,setting,value
O=C1OC(=O)c2cc(Cl)ccc21,solubility (mole fraction),"in acetonitrile, 283.15 K",0.102
same,solubility (mole fraction),"in acetonitrile, 288.15 K",0.121
same,solubility (mole fraction),"in acetonitrile, 293.15 K",0.143
same,solubility (mole fraction),"in acetonitrile, 298.15 K",0.167
same,solubility (mole fraction),"in acetonitrile, 303.15 K",0.194
same,solubility (mole fraction),"in acetonitrile, 308.15 K",0.221
same,solubility (mole fraction),"in acetonitrile, 313.15 K",0.249
same,solubility (mole fraction),"in acetonitrile, 318.15 K",0.277
same,solubility (mole fraction),"in acetonitrile, 323.15 K",0.304
same,solubility (mole fraction),"in acetonitrile, 328.15 K",0.331
same,solubility (mole fraction),"in cyclohexane, 283.15 K",0.000482
same,solubility (mole fraction),"in cyclohexane, 288.15 K",0.000684
same,solubility (mole fraction),"in cyclohexane, 293.15 K",0.000895
same,solubility (mole fraction),"in cyclohexane, 298.15 K",0.00109
same,solubility (mole fraction),"in cyclohexane, 303.15 K",0.00139
same,solubility (mole fraction),"in cyclohexane, 308.15 K",0.00161
same,solubility (mole fraction),"in cyclohexane, 313.15 K",0.00203
same,solubility (mole fraction),"in cyclohexane, 318.15 K",0.00246
same,solubility (mole fraction),"in cyclohexane, 323.15 K",0.00315
same,solubility (mole fraction),"in cyclohexane, 328.15 K",0.00399
same,solubility (mole fraction),"in methanol, 283.15 K",0.0848
same,solubility (mole fraction),"in methanol, 288.15 K",0.0944
same,solubility (mole fraction),"in methanol, 293.15 K",0.118
same,solubility (mole fraction),"in methanol, 298.15 K",0.136
same,solubility (mole fraction),"in methanol, 303.15 K",0.167
same,solubility (mole fraction),"in methanol, 308.15 K",0.196
same,solubility (mole fraction),"in methanol, 313.15 K",0.228
same,solubility (mole fraction),"in methanol, 318.15 K",0.266
same,solubility (mole fraction),"in methanol, 323.15 K",0.309
same,solubility (mole fraction),"in methanol, 328.15 K",0.356
same,solubility (mole fraction),"in methyl acetate, 283.15 K",0.134
same,solubility (mole fraction),"in methyl acetate, 288.15 K",0.163
same,solubility (mole fraction),"in methyl acetate, 293.15 K",0.19
same,solubility (mole fraction),"in methyl acetate, 298.15 K",0.216
same,solubility (mole fraction),"in methyl acetate, 303.15 K",0.241
same,solubility (mole fraction),"in methyl acetate, 308.15 K",0.269
same,solubility (mole fraction),"in methyl acetate, 313.15 K",0.296
same,solubility (mole fraction),"in methyl acetate, 318.15 K",0.33
same,solubility (mole fraction),"in methyl acetate, 323.15 K",0.362
same,solubility (mole fraction),"in methyl acetate, 328.15 K",0.407
same,solubility (mole fraction),"in tert-amyl alcohol, 283.15 K",0.00738
same,solubility (mole fraction),"in tert-amyl alcohol, 288.15 K",0.00942
same,solubility (mole fraction),"in tert-amyl alcohol, 293.15 K",0.0129
same,solubility (mole fraction),"in tert-amyl alcohol, 298.15 K",0.0166
same,solubility (mole fraction),"in tert-amyl alcohol, 303.15 K",0.0219
same,solubility (mole fraction),"in tert-amyl alcohol, 308.15 K",0.0274
same,solubility (mole fraction),"in tert-amyl alcohol, 313.15 K",0.0376
same,solubility (mole fraction),"in tert-amyl alcohol, 318.15 K",0.0489
same,solubility (mole fraction),"in tert-amyl alcohol, 323.15 K",0.065
same,solubility (mole fraction),"in tert-amyl alcohol, 328.15 K",0.0823
same,solubility (mole fraction),[1],0.00888
same,solubility (mole fraction),[2],0.0103
same,solubility (mole fraction),[3],0.0128
same,solubility (mole fraction),[4],0.0142
same,solubility (mole fraction),[5],0.0169
same,solubility (mole fraction),[6],0.0191
same,solubility (mole fraction),[7],0.0212
same,solubility (mole fraction),[8],0.0233
same,solubility (mole fraction),[9],0.0254
same,solubility (mole fraction),[10],0.0274
O=C1OC(=O)c2c(Cl)cccc21,solubility (mole fraction),"in acetonitrile, 283.15 K",0.0676
same,solubility (mole fraction),"in acetonitrile, 288.15 K",0.0793
same,solubility (mole fraction),"in acetonitrile, 293.15 K",0.092
same,solubility (mole fraction),"in acetonitrile, 298.15 K",0.106
same,solubility (mole fraction),"in acetonitrile, 303.15 K",0.123
same,solubility (mole fraction),"in acetonitrile, 308.15 K",0.142
same,solubility (mole fraction),"in acetonitrile, 313.15 K",0.165
same,solubility (mole fraction),"in acetonitrile, 318.15 K",0.193
same,solubility (mole fraction),"in acetonitrile, 323.15 K",0.225
same,solubility (mole fraction),"in acetonitrile, 328.15 K",0.263
same,solubility (mole fraction),"in cyclohexane, 283.15 K",0.00042
same,solubility (mole fraction),"in cyclohexane, 288.15 K",0.000507
same,solubility (mole fraction),"in cyclohexane, 293.15 K",0.000554
same,solubility (mole fraction),"in cyclohexane, 298.15 K",0.000764
same,solubility (mole fraction),"in cyclohexane, 303.15 K",0.000909
same,solubility (mole fraction),"in cyclohexane, 308.15 K",0.00108
same,solubility (mole fraction),"in cyclohexane, 313.15 K",0.00136
same,solubility (mole fraction),"in cyclohexane, 318.15 K",0.00176
same,solubility (mole fraction),"in cyclohexane, 323.15 K",0.00222
same,solubility (mole fraction),"in cyclohexane, 328.15 K",0.00277
same,solubility (mole fraction),"in methanol, 283.15 K",0.0637
same,solubility (mole fraction),"in methanol, 288.15 K",0.0698
same,solubility (mole fraction),"in methanol, 293.15 K",0.0766
same,solubility (mole fraction),"in methanol, 298.15 K",0.09
same,solubility (mole fraction),"in methanol, 303.15 K",0.0968
same,solubility (mole fraction),"in methanol, 308.15 K",0.104
same,solubility (mole fraction),"in methanol, 313.15 K",0.116
same,solubility (mole fraction),"in methanol, 318.15 K",0.126
same,solubility (mole fraction),"in methanol, 323.15 K",0.144
same,solubility (mole fraction),"in methanol, 328.15 K",0.161
same,solubility (mole fraction),"in methyl acetate, 283.15 K",0.0882
same,solubility (mole fraction),"in methyl acetate, 288.15 K",0.0987
same,solubility (mole fraction),"in methyl acetate, 293.15 K",0.112
same,solubility (mole fraction),"in methyl acetate, 298.15 K",0.123
same,solubility (mole fraction),"in methyl acetate, 303.15 K",0.145
same,solubility (mole fraction),"in methyl acetate, 308.15 K",0.157
same,solubility (mole fraction),"in methyl acetate, 313.15 K",0.176
same,solubility (mole fraction),"in methyl acetate, 318.15 K",0.198
same,solubility (mole fraction),"in methyl acetate, 323.15 K",0.223
same,solubility (mole fraction),"in methyl acetate, 328.15 K",0.252
same,solubility (mole fraction),"in tert-amyl alcohol, 283.15 K",0.00423
same,solubility (mole fraction),"in tert-amyl alcohol, 288.15 K",0.00548
same,solubility (mole fraction),"in tert-amyl alcohol, 293.15 K",0.00677
same,solubility (mole fraction),"in tert-amyl alcohol, 298.15 K",0.00875
same,solubility (mole fraction),"in tert-amyl alcohol, 303.15 K",0.0113
same,solubility (mole fraction),"in tert-amyl alcohol, 308.15 K",0.0125
same,solubility (mole fraction),"in tert-amyl alcohol, 313.15 K",0.0146
same,solubility (mole fraction),"in tert-amyl alcohol, 318.15 K",0.0184
same,solubility (mole fraction),"in tert-amyl alcohol, 323.15 K",0.0228
same,solubility (mole fraction),"in tert-amyl alcohol, 328.15 K",0.0288
same,solubility (mole fraction),[1],0.00307
same,solubility (mole fraction),[2],0.004
same,solubility (mole fraction),[3],0.00497
same,solubility (mole fraction),[4],0.00605
same,solubility (mole fraction),[5],0.00729
same,solubility (mole fraction),[6],0.00873
same,solubility (mole fraction),[7],0.0104
same,solubility (mole fraction),[8],0.0125
same,solubility (mole fraction),[9],0.0146
same,solubility (mole fraction),[10],0.0177
